Source: publication PMC9959048, “Lipidation of Naturally Occurring α-Helical Antimicrobial Peptides as a Promising Strategy for Drug Design” (International Journal of Molecular Sciences, 2023)
Converted amounts (≈) assume the structure as drawn. Residues, ends and D or L forms follow the SMILES beside them. *: point of attachment. Octanoyl = CCCCCCCC(=O)*

What was measured:
[1] = tested on: S. aureus PCM1650; format: cell-based, Staphylococcus aureus; conditions: PCM1650, 24 h
In short: (§1)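 MICs came from CLSI broth microdilution, using Mueller–Hinton broth for bacteria and MOPS-buffered RPMI-1640 with 2% glucose for yeasts. Plates were incubated 24 h at 37 °C (bacteria) or 35 °C (fungi) and read at 600 nm. Growth inhibition (%) was set against peptide-free inoculated wells (100%) and medium-only wells (0%), in triplicate.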

[2] = tested on: S. aureus PCM2054; format: cell-based, Staphylococcus aureus; conditions: PCM2054, 24 h
In short: as §1

[3] = tested on: S. epidermidis PCM2118; format: cell-based, Staphylococcus epidermidis; conditions: PCM2118, 24 h
In short: as §1

[4] = tested on: S. epidermidis PCM521; format: cell-based, Staphylococcus epidermidis; conditions: PCM521, 24 h
In short: as §1

[5] = tested on: E. coli PCM2057; format: cell-based, Escherichia coli; conditions: PCM2057, 24 h
In short: as §1

[6] = tested on: C. albicans PCM2566; format: cell-based, Candida albicans; conditions: PCM2566, 24 h
In short: as §1

[7] = tested on: C. glabrata CCM8270; format: cell-based, Candida glabrata; conditions: CCM8270, 24 h
In short: as §1

[8] = tested on: C. krusei CCM8271; format: cell-based, Candida krusei; conditions: CCM8271, 24 h
In short: as §1

[9] = tested on: C. parapsilosis CCM 8260; format: cell-based, Candida parapsilosis; conditions: CCM 8260, 24 h
In short: as §1

[10] = tested on: POPC liposomes; assay: CD, α-helix content in POPC liposomes; format: physicochemical; conditions: 25 °C, peptide 0.15 mg/mL, 1.3 mM POPC
Procedure: (§2) Large unilamellar vesicles (LUV) were obtained by extrusion of MLV liposomes through polycarbonate membrane filters with a pore diameter of 100 nm (Whatman International Ltd., Kent, UK) using a mini-extruder (Avanti Polar Lipids, Inc., Alabaster, AL, USA).
(§3) CD experiments were carried out at 25 °C using a Jasco J-815 spectropolarimeter in the wavelength range 185–260 nm. The concentration of the lipopeptides was 0.15 mg/mL. The CD spectra were recorded in water, PBS (pH 7.4), 1.3 mM POPC and 1.3 mM POPG. The results are plotted as the mean molar ellipticity per one amino acid residue (MRME, deg cm^2 dmol^−1) as a function of the wavelength (nm). Additionally, we performed a conformational analysis of the selected compounds in the presence of S. aureus cells. […] The mixtures were then incubated for 2 h before recording the CD spectra.
(§4) The percentage of the α-helical structure was calculated based on the mean molar ellipticity at 222 nm using the formula: fH=θ222−3000/−36000−3000·100% where θ222 corresponds to the value of the mean molar ellipticity at a wavelength of 222 nm.

[11] = tested on: S. aureus cells; assay: CD, α-helix content in the presence of S. aureus cells; format: physicochemical, Staphylococcus aureus; conditions: for α-Helix percentage, Staphylococcus aureus: peptide 0.15 mg/mL, phosphate buffer 10 mM pH 7.0, 2 h incubation
Procedure: as §3, §4

[12] = target: POPG LUVs; assay: Isothermal titration calorimetry, binding to POPG LUVs; conditions: ITC, 25 °C, 0.05 or 0.07 mM peptide titrated with 1.3 or 1.8 mM POPG LUVs; one set of sites model (C10-LL-I: two sets of sites, first line)
Procedure: as §2
The thermodynamic parameters of the interactions of the lipopeptides with POPG and POPC liposomes were determined by isothermal titration calorimetry (ITC). Measurements were performed at 25 °C using an AutoITC microcalorimeter (MicroCal Inc., Northampton, MA, USA) with a 1.4491 mL sample and reference cells. The experiment consisted in the titration of a buffered peptide solution with a concentration of 0.05 and/or 0.07 mM with a buffered solution containing POPG or POPC LUVs with a lipid concentration of 1.3 and 1.8 mM (10.02 µL; 29 injections, 2 µL for the first injection only), as it was described previously. The result of the titration was a thermogram showing a series of peaks corresponding to the titration steps. A titration curve was obtained after integration of the peak areas. The obtained isotherms were fitted to the “one set of sites” or “two sets of sites” models available in the ORIGIN 7.0 (MicroCal Inc., Northampton, MA, USA), which made it possible to determine the enthalpy (ΔH), the binding constant (KITC) and the stoichiometry (N) of the interactions between the lipopeptide and the lipids. The following formula was used to calculate the entropy change (ΔS) and the Gibbs free energy (ΔG): ΔG=−RTln(55.5KITC)=ΔH−TΔS where: factor 55.5 is the molar concentration of water, R is the gas constant (1.986 cal·mol^−1·K^−1), and T is the absolute temperature.

CCCCCCCC(=O)N[C@H](C(=O)N[C@@H](CCCCN)C(=O)N[C@@H](CCCCN)C(=O)N[C@H](C(=O)N[C@@H](CC(C)C)C(=O)N[C@@H](CO)C(=O)N[C@@H](CCCCN)C(=O)N[C@H](C(=O)N[C@@H](CCCCN)C(=O)N[C@@H](CCCCN)C(=O)N[C@@H](CC(C)C)C(=O)N[C@@H](CC(C)C)C(=O)N[C@@H](CCCCN)C(N)=O)[C@@H](C)CC)[C@@H](C)CC)[C@@H](C)CC [C8-LK6] (Octanoyl-IKKILSKIKKLLK-NH2)
MIC, S. aureus PCM1650 [1]: 12.5 µg/mL (≈ 7.45 µM)
MIC, S. aureus PCM2054 [2]: 12.5 µg/mL (≈ 7.45 µM)
MIC, S. epidermidis PCM2118 [3]: 6.25 µg/mL (≈ 3.72 µM)
MIC, S. epidermidis PCM521 [4]: 6.25 µg/mL (≈ 3.72 µM)
MIC, E. coli PCM2057 [5]: >50 µg/mL
MIC, C. albicans PCM2566 [6]: 12.5 µg/mL (≈ 7.45 µM)
MIC, C. glabrata CCM8270 [7]: 25 µg/mL (≈ 14.9 µM)
MIC, C. krusei CCM8271 [8]: 6.25 µg/mL (≈ 3.72 µM)
MIC, C. parapsilosis CCM 8260 [9]: 6.25 µg/mL (≈ 3.72 µM)
θ222/θ208, POPC [10]: 0.82
α-Helix percentage, POPC ([10]; from ellipticity at 222 nm): 46%
θ222/θ208, Staphylococcus aureus ([11]; OD0.1 bacterial suspension): 1.26
α-Helix percentage, Staphylococcus aureus ([11]; OD0.1 bacterial suspension): 22%
θ222/θ208, Staphylococcus aureus ([11]; OD0.2 bacterial suspension): 0.89
α-Helix percentage, Staphylococcus aureus ([11]; OD0.2 bacterial suspension): 17%
θ222/θ208, Staphylococcus aureus ([11]; OD0.5 bacterial suspension): 0.88
α-Helix percentage, Staphylococcus aureus ([11]; OD0.5 bacterial suspension): 18%
α-helical structure in the presence of bacterial cells ([11]; S. aureus, various bacterial cell counts of the inoculum): 17–22%
pKITC, POPG [12]: 6.31 ± 0.34
